Consider 14 compounds from ChEMBL document CHEMBL3259686, “Biologically active dichapetalins from Dichapetalum gelonioides” (J Nat Prod, 2014).

Calls of active or inactive are those of the source. The calls are words filed in the database; no cut-off is given here.

One data set concerns Panagrellus redivivus. In words: Nematicidal activity against Panagrellus redivivus assessed as mortality at 100 ug/ml after 72 hrs by light binocular microscopic analysis (reference value: 7.1 +/- 0.9%). In kind it is functional.
The subject of a further data set is Spodoptera exigua. In words: Antifeedant activity against beet armyworm after 24 hrs. The format is functional, organism-based.
The test system of data set [1] is Colletotrichum gloeosporioides. In words: Antifungal activity against Colletotrichum gloeosporioides at 50 ug/disc after 2 days by disk diffusion method. The format is functional. The following applies: for zone of inhibition at 50 µg/disc: 48 h, read-out: DIZ. In general terms: A growth-free zone around the sample is the usual read-out of agar diffusion tests.

In data set [2] the test system is RAW264.7. In words: Inhibition of LPS-induced nitric oxide production in mouse RAW264.7 cells by Griess method. In kind it is functional, cell-based. Background: Griess reagent forms a coloured azo dye with nitrite.
For a further data set, the system named is Rhizoctonia solani. In words: Antifungal activity against Rhizoctonia solani at 50 ug/disc after 2 days by disk diffusion method. The format is functional. The note with it: for zone of inhibition at 50 µg/disc: 48 h, read-out: DIZ.
A short description of data set [3]: Antifungal activity against Cylindrocarpon musae at 50 ug/disc after 2 days by disk diffusion method. In kind it is functional.
The test system of data set [4] is Fusarium oxysporum f. sp. niveum. In words: Antifungal activity against Fusarium oxysporum f. sp. niveum at 50 ug/disc after 2 days by disk diffusion method. The format is functional. The following applies: for zone of inhibition at 50 µg/disc: 48 h, read-out: DIZ.
The test system of data set [5] is RAW264.7. In words: Cytotoxicity against mouse RAW264.7 cells by MTT assay. In kind it is cell-based. (In general: Tetrazolium dyes change colour on reduction, which living cells bring about.)
Data set [6] concerns RAW264.7. In words: Ratio of MG132 IC50 to compound IC50 for LPS-induced nitric oxide production in mouse RAW264.7 cells. The format is functional.
Another data set relates to MCF7. In words: Cytotoxicity against human MCF7 cells after 48 hrs by MTS assay. In kind it is functional, cell-based. The note with it: MCF7, 48 h.
A further data set concerns HL-60. In words: Cytotoxicity against human HL60 cells after 48 hrs by MTS assay. The note with it: HL-60, 48 h. In kind it is functional, cell-based.
A further data set has as its system SW480. In words: Cytotoxicity against human SW480 cells after 48 hrs by MTS assay. The format is functional, cell-based. The note with it: SW480, 48 h.
A further data set relates to A549. In words: Cytotoxicity against human A549 cells after 48 hrs by MTS assay. The format is functional, cell-based. The following applies: A549, 48 h.
A further data set deals with SMMC-7721. In words: Cytotoxicity against human SMMC7721 cells after 48 hrs by MTS assay. In kind it is functional, cell-based. The note with it: SMMC-7721, 48 h.
Data set [7] can be described thus: Cytotoxicity against human WM266.4 cells. The note with it: WM 266-4. In kind it is functional, cell-based.
In another data set the test system is HCT-116. In words: Cytotoxicity against human HCT116 cells. The format is functional, cell-based.

The mortality is the share of the test organisms that died. In the case of `C/C(=C\[C@H]1C[C@@H]([C@@H]2CC=C3[C@]4(C)[C@H](O)C[C@@H]5[C@](C)(CC=C6C[C@@H](c7ccccc7)OC[C@@]65C)[C@H]4CC[C@]32C)C(=O)O1)CO`, the mortality at 100 µg/mL with Panagrellus redivivus stood at 3%. The EC50 in the data set on Spodoptera exigua is 3.4 microg/cm2.
Usually IC50 stands for the concentration needed to halve the response being measured. A higher IC50 goes with weaker potency. As for `C/C(=C\[C@H]1C[C@@H]([C@@H]2CC[C@]34C[C@]23C=C[C@@H]2[C@@]3(C)CC=C5C[C@@H](c6ccccc6)OC[C@]5(C)[C@@H]3C[C@@H](O)[C@]24C)C(=O)O1)CO` [DICHAPETALIN A], the “diameter of the inhibition zone (DIZ)” value in [1] and in data set [4] was “inactive” each time. Moreover, inhibition in the data set with RAW264.7 [2] was half-maximal at 0.02 µM (IC50). Besides, the zone of inhibition at 50 µg/disc in the data set with Rhizoctonia solani amounted to 10.5 mm. Besides, the inhibition zone (IZ) in [3] was 12.8 mm. For the same compound, the mortality at 100 µg/mL in the data set on Panagrellus redivivus amounted to 15.3%. In the data set with RAW264.7 [5], the Activity entry is reported as “Non-toxic”. The compound also displayed an EC50 with Spodoptera exigua of 3.1 microg/cm2. Further, the “Ratio IC50” value with RAW264.7 [6] was 20.
Take `CC(=O)O[C@@]1(C)CO[C@@]2(C[C@@H]([C@@H]3CC[C@]45C[C@]34C=C[C@@H]3[C@@]4(C)CC=C6C[C@@H](c7ccccc7)OC[C@]6(C)[C@@H]4CC(=O)[C@]35C)C(=O)O2)C1`: the zone of inhibition at 50 µg/disc in data set [1] stood at 10.1 mm; in data set [4] it was 11.5 mm. Moreover, the “diameter of the inhibition zone (DIZ)” value with Rhizoctonia solani is “inactive”. In data set [3], this compound yielded an inhibition zone (IZ) of 13.8 mm. In the data set on Spodoptera exigua, this compound displayed an EC50 of 11.7 microg/cm2.
Take `COc1ccc([C@@H]2CC3=CC[C@@]4(C)[C@@H](CC(=O)[C@]5(C)[C@@H]4C=C[C@]46C[C@@]45CC[C@H]6[C@@H]4C[C@@]5(OC[C@](C)(OC(=O)CCc6ccc(O)cc6)[C@H]5O)OC4=O)[C@@]3(C)CO2)cc1`: the IC50 in the data set on MCF7, in the data set with HL-60, with SW480, in the data set on A549 and in the data set with SMMC-7721 was > 40 µM each time. For the same compound, in the data set with Panagrellus redivivus, the mortality at 100 µg/mL is 7.8%. For the same compound, the EC50 with Spodoptera exigua came out at 28.9 microg/cm2.
As to `COc1ccc([C@@H]2CC3=CC[C@@]4(C)[C@@H](CC(=O)[C@]5(C)[C@@H]4C=C[C@]46C[C@@]45CC[C@H]6[C@@H]4C[C@]5(C[C@@](C)(OC(=O)C[C@@H](O)c6ccc(O)cc6)CO5)OC4=O)[C@@]3(C)CO2)cc1`, the mortality at 100 µg/mL in the data set with Panagrellus redivivus is 4.8%. In the data set on Spodoptera exigua, the EC50 was > 100 microg/cm2.
As for `CC(=O)O[C@@]1(C)CO[C@@]2(C1)OC(=O)[C@H]([C@@H]1CC[C@]34C[C@]13C=C[C@@H]1[C@@]3(C)CC=C5C[C@@H](c6ccccc6)OC[C@]5(C)[C@@H]3[C@@H](O)C(=O)[C@]14C)[C@H]2O`, the EC50 in [7] was 0.078 µM; with HCT-116, 0.0099 µM.
On to `C[C@]1(O)CO[C@@]2(C1)OC(=O)[C@H]([C@@H]1CC[C@]34C[C@]13C=C[C@@H]1[C@@]3(C)CC=C5C[C@@H](c6ccccc6)OC[C@]5(C)[C@@H]3CC(=O)[C@]14C)[C@H]2O`, for which, in the data set with Panagrellus redivivus, the mortality at 100 µg/mL turned out to be 46.3%.
Regarding `COc1ccc([C@@H]2CC3=CC[C@]4(C)[C@H]5C=C[C@]67C[C@]6(CC[C@H]7[C@@H]6C[C@H](/C=C(\C)CO)OC6=O)[C@]5(C)[C@H](O)C[C@H]4[C@@]3(C)CO2)cc1` [DICHAPETALIN K], the mortality at 100 µg/mL in the data set on Panagrellus redivivus was determined as 4.4%.
Consider `COC(=O)[C@@H](Cc1cc(C)co1)[C@@H]1CC[C@]23C[C@]12C=C[C@@H]1[C@@]2(C)CC=C4C[C@@H](c5ccccc5)OC[C@]4(C)[C@@H]2CC(=O)[C@]13C`, for which the IC50 is 21 µM in the data set on MCF7; 10.2 µM with HL-60; > 40 µM in the data set with SW480; 17.6 µM in the data set with A549; 24.8 µM in the data set on SMMC-7721. In addition, the mortality at 100 µg/mL in the data set on Panagrellus redivivus is 2.5%. The EC50 in the data set on Spodoptera exigua is listed as > 100 microg/cm2.
Consider `C[C@]1(OC(=O)C[C@@H](O)c2ccc(O)cc2)CO[C@@]2(C1)OC(=O)[C@H]([C@@H]1CC[C@]34C[C@]13C=C[C@@H]1[C@@]3(C)CC=C5C[C@@H](c6ccccc6)OC[C@]5(C)[C@@H]3CC(=O)[C@]14C)[C@H]2O`, for which the IC50 with MCF7 amounted to 3.5 µM; in the data set with HL-60, 5.1 µM; with SW480 it was 21 µM; in the data set on A549, 3 µM; with SMMC-7721, 18.7 µM.
On to `C[C@]1(OC(=O)C[C@@H](O)c2ccc(O)cc2)CO[C@@]2(C[C@@H]([C@@H]3CC[C@]45C[C@]34C=C[C@@H]3[C@@]4(C)CC=C6C[C@@H](c7ccccc7)OC[C@]6(C)[C@@H]4CC(=O)[C@]35C)C(=O)O2)C1`, for which the zone of inhibition at 50 µg/disc in data set [1] came out at 12.4 mm; with Rhizoctonia solani, 13.8 mm; in data set [4] it was 12.8 mm. Moreover, the IC50 was 8.2 µM in the data set on MCF7; > 40 µM with HL-60; > 40 µM with SW480; 26.8 µM in the data set with A549; > 40 µM in the data set with SMMC-7721. Further, in [3], the inhibition zone (IZ) stood at 12.8 mm. Further, in the data set on Panagrellus redivivus, the mortality at 100 µg/mL turned out to be 20.5%. Moreover, the EC50 in the data set with Spodoptera exigua is given as 78.7 microg/cm2.
For the compound `C[C@]12CC=C3C[C@@H](c4ccccc4)OC[C@]3(C)[C@@H]1C[C@@H](O)[C@]1(C)[C@@H]2C=C[C@]23C[C@]12CC[C@H]3[C@@H]1C[C@@]2(OC[C@](C)(OC(=O)CCc3ccc(O)cc3)[C@H]2O)OC1=O`, the mortality at 100 µg/mL in the data set on Panagrellus redivivus was 61.8%. The same compound registered an EC50 with Spodoptera exigua of 9.8 microg/cm2.
As for `COC(=O)[C@@H](C[C@@]1(OC)C[C@](C)(O)CO1)[C@@H]1CC[C@]23C[C@]12C=C[C@@H]1[C@@]2(C)CC=C4C[C@@H](c5ccccc5)OC[C@]4(C)[C@@H]2CC(=O)[C@]13C`, in the data set with Spodoptera exigua, the EC50 was found to be 3.1 microg/cm2.
In the case of NYSTATIN, the inhibition zone (IZ) in data set [1] turned out to be 14.5 mm; in the data set with Rhizoctonia solani it was 14.7 mm; in data set [3] it was 16.6 mm; in data set [4], 12 mm.
